Results reported in PMC9918186, “Interaction of Positively Charged Oligopeptides with Blood Plasma Proteins” (International Journal of Molecular Sciences, 2023).

Legend:
[1] = test system: γ-globulin fraction (GGF); test: Fluorescence quenching of GGF by peptides L1–3; format: binding; settings: for Stern–Volmer constant Ksv / binding constant Kb / logKb: GGF 1.0 µM, phosphate buffer; for Stern–Volmer constant Ksv: peptide 0.25–2.0 µM, λex 280 nm; for logKb: double log regression; for quenching rate constant kq: from Ksv with τ0 10^−8 s assumed
Experimental: Fluorescence spectroscopy was carried out to characterize the mechanism of the interaction between three plasma proteins, BSA, AAG, and GGF, with the studied peptides. The fluorescence spectra of protein were collected during titration of L1–L3. The excitation wavelength was set at λ = 280 nm (both Trp and Tyr residues were excited).
To confirm this, the fluorescence data were further analyzed by the Stern–Volmer Equation (1) after correction due to the infer filter effect (2):(1) F0/F=1+kqτ[Q]=1+KSV (2) Fcorr=Fobs10^(Aex+Aem)/2 where F0 and F are the fluorescence intensities (after correction) of the protein and protein in the presence of L1–3, respectively, kq is the quenching rate constant, τ0 the average lifetime, [Q] is the L1–3 concentration, Ksv is the Stern–Volmer constant, and Fcorr, and Fobs are the corrected and observed fluorescence intensities, respectively. Aex and Aem are the absorbance values at excitation and emission wavelengths, respectively. A linear regression fit was used to calculate the value of the Stern–Volmer constant (Ksv). Then, assuming the average lifetime of the fluorophore in the excited state for a biomolecule as 10^−8 s, the quenching rate constant (kq) was computed. For dynamic quenching, the maximum scatters collision quenching rate constant for different quenchers with the biopolymers was reported to be 2 × 10^10 dm^3mol^−1s^−1 [55, 56]. […] Collisional quenching occurs when the excited-state fluorophore is deactivated by contact with some other molecule in solution (by collisions). […] This is a dynamic mechanism of quenching. The quenching constant characterizes the quenching mechanism. The maximum value for collisional quenching is 2 × 10^10 dm^3mol^−1s^−1. […] For further confirmation, measurements were made at, in addition to 297 K, temperatures 303 and 308 K. Experimental data points were fitted and analyzed using Equation (1).
Both for the complexes with BSA and with GGF, the binding constant (Kb) and the binding stoichiometry (n) were calculated. […] The values of Kb and n were calculated from the slope and the intercept of the log [(F0 − F)/F] versus log [Q] plot (Figure 2).
The forces involved in the interaction can be identified by measurement at different temperatures and then by thermodynamic analysis. The signs of the thermodynamic parameters identify the type of interactions. The enthalpy change (ΔH°), the entropic change (ΔS°), and the free energy change (ΔG°) were calculated from Equations (4) and (5):(4) […]=−ΔH^°/RT+ΔS^°/R (5) ΔG^°=ΔH^°−TΔS^°=−RTlnKb where Kb is the binding constant and R is the universal gas constant. To determine the thermodynamic parameters, the van’t Hoff plot was first conducted, i.e., the temperature dependence of the binding constant, according to Equation (4). The Kb values at the three temperatures were fitted by the linear regression method. The values of ΔH and ΔS were calculated from the slope and intercept at the fitted line. Next, the free energy change (ΔG°) was obtained from Equation (5).

BSA = target: T1, BSA (Bos taurus, UniProt P02769); test: CD spectroscopy, secondary structure of BSA with peptide; design: species or system bovine
T1 construct: purchased Sigma Aldrich
T1 sequence (P02769 25-607): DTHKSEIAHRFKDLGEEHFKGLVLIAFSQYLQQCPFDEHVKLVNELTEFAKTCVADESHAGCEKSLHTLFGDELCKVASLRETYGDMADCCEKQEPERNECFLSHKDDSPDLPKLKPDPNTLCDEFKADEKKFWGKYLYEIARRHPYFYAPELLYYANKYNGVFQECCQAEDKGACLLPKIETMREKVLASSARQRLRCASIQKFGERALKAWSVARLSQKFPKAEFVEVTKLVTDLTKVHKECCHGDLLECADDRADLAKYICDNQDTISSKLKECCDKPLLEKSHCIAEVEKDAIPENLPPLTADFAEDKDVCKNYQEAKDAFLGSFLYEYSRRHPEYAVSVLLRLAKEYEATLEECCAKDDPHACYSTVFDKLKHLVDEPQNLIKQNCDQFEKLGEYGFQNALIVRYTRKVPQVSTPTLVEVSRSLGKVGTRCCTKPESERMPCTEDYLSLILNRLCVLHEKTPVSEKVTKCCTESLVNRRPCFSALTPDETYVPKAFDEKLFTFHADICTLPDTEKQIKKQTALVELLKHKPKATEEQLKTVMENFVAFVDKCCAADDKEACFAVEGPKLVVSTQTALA
Experimental: Circular dichroism spectroscopy, similar to fluorescence and FTIR spectroscopies, is a useful method to determine the changes in the secondary structure of proteins in case of the presence of compounds that can interact with protein molecules. Therefore, in this study, the CD spectra for BSA protein and GGF fraction, in the absence and presence of analyzed peptides L1, L2, and L3, were measured (Figure 3). We wanted to check the changes in the course of the spectrum after adding every portion of the analyzed peptides, from 1:0 to 1:1.5 protein to L1–L3 molar ratios.
Circular dichroism (CD) spectroscopy was performed using the Jasco J-1500 magnetic circular dichroism spectrometer (JASCO International CO., Tokyo, Japan). All measurements for the protein solutions in the absence and presence of the analyzed peptides L1, L2, and L3 were made at room temperature under simulated physiological conditions in pH 7.4, in phosphate buffer as a solvent. The phosphate buffer not only controls the stable pH but also imitates the biological environments. However, its use leads to some limitations for CD measurements due to containing NaCl and KCl. The spectra were baseline corrected (phosphate buffer was used as a baseline) and were measured in the range of 205–250 nm at a scan rate speed of 50 nm/min, with a response time of 1 s, and a 10 mm or 5 mm path length for BSA and GGF, respectively. The concentrations of proteins and analyzed peptides were 1 × 10^−6 mol/dm^3 and 1 × 10^−3 mol/dm^3, respectively. Experiments were performed with protein to ligand molar ratios: 1:0, 1:0.25, 1:0.5, 1:0.75, 1:1, and 1:1.5. In total, 3 cm^3 of a solution of each protein was titrated by successive additions of analyzed peptides. The results were analyzed by CD Multivariate Calibration Creation and CD Multivariate SSE programs (JASCO International CO., Tokyo, Japan), with the conversion of protein concentrations for mean residue molar concentrations.

[2] = BSA:peptide 1:0.25, pH 7.4 phosphate buffer
[3] = BSA:peptide 1:0.5, pH 7.4 phosphate buffer
[4] = BSA:peptide 1:0.75, pH 7.4 phosphate buffer
[5] = BSA:peptide 1:1, pH 7.4 phosphate buffer
[6] = BSA:peptide 1:1.5, pH 7.4 phosphate buffer

Lys-Dab-Dab-Gly-Orn-Pro-His-Lys-Arg-Lys-Dbt [L1]
Stern–Volmer constant Ksv ([1]; 297 K, inner-filter corrected): 4.24 ± 0.06 × 10^4 dm^3mol^−1
binding constant Kb ([1]; 297 K): 10.10 ± 0.24 × 10^4 dm^3mol^−1
logKb ([1]; 297 K): 5.00 ± 0.12
quenching rate constant kq ([1]; 297 K): 4.24 ± 0.06 × 10^12 dm^3mol^−1s^−1
Stern–Volmer constant Ksv ([1]; 303 K): 4.03 ± 0.13 × 10^4 dm^3mol^−1
binding constant Kb ([1]; 303 K): 6.17 ± 0.25 × 10^4 dm^3mol^−1
logKb ([1]; 303 K): 4.79 ± 0.20
quenching rate constant kq ([1]; 303 K): 4.03 ± 0.13 × 10^12 dm^3mol^−1s^−1
Stern–Volmer constant Ksv ([1]; 308 K): 3.60 ± 0.06 × 10^4 dm^3mol^−1
binding constant Kb ([1]; 308 K): 2.51 ± 0.12 × 10^4 dm^3mol^−1
logKb ([1]; 308 K): 4.39 ± 0.21
quenching rate constant kq ([1]; 308 K): 3.60 ± 0.06 × 10^12 dm^3mol^−1s^−1
% Other of BSA (BSA; [2]): 24.6%
% β-Sheet of BSA (BSA; [2]): 6.0%
% β-Turn of BSA (BSA; [2]): 10.0%
% α-Helix of BSA (BSA; BSA:peptide 1:0.25, pH 7.4 phosphate buffer, room temperature, BSA 1 µM): 59.4%
% Other of BSA (BSA; [3]): 24.8%
% α-Helix of BSA (BSA; [3]): 59.2%
% β-Sheet of BSA (BSA; [3]): 5.9%
% β-Turn of BSA (BSA; [3]): 10.1%
% Other of BSA (BSA; [4]): 25.0%
% α-Helix of BSA (BSA; [4]): 58.6%
% β-Sheet of BSA (BSA; [4]): 6.3%
% β-Turn of BSA (BSA; [4]): 10.1%
% Other of BSA (BSA; [5]): 25.0%
% α-Helix of BSA (BSA; [5]): 58.5%
% β-Sheet of BSA (BSA; [5]): 6.4%
% β-Turn of BSA (BSA; [5]): 10.1%
% Other of BSA (BSA; [6]): 25.1%
% α-Helix of BSA (BSA; [6]): 58.2%
% β-Sheet of BSA (BSA; [6]): 6.6%
% β-Turn of BSA (BSA; [6]): 10.1%
reduction in the percentage of α-helix of BSA (BSA; from 1:0 to 1:1.5 BSA:peptide): 2.5%
